# Measurements: ChEMBL document CHEMBL4420062, “Tfpi inhibitors and methods of use” (2013)
# pIC50: −log10 of the molar value. Where a SMILES comes first, the peptide text is derived from it. [ ]: non-standard residue; d: D form. Aib = CC(C)(N)C(=O)O
# Key:
# [1] = Stability in human plasma assessed as parent compound remaining after 24 hrs; type: ADME, cell-free; conditions: read-out: Stability
# [2] = Stability in mouse plasma assessed as parent compound remaining after 24 hrs; type: ADME, cell-free; conditions: read-out: Stability
# [3] = molecular target: T1, Tissue factor pathway inhibitor (Homo sapiens, UniProt P10646); experiment: Binding affinity to TFPI (unknown origin) incubated for […] using tracer peptide JBT0131 by screening ELISA
# T1 sequence (P10646 whole entry): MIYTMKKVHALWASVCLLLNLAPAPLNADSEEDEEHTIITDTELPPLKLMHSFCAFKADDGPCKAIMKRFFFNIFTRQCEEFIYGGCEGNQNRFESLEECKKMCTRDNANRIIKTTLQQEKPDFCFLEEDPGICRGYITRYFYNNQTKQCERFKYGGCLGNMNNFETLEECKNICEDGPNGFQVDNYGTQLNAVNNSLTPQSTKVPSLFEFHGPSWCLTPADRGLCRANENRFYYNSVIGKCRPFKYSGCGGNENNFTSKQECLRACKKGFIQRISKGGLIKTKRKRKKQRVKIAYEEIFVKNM
Molecule,remaining at 24 h [1] [%],remaining at 24 h [2] [%],pIC50 [3]
CC(=O)N[C@@H](Cc1ccccc1)C(=O)N[C@@H](CCC(N)=O)C(=O)N[C@@H](CO)C(=O)N[C@@H](CCCCN)C(=O)N1CCC[C@@H]1C(=O)N[C@@H](CC(N)=O)C(=O)N[C@H](C(=O)N[C@@H](Cc1cnc[nH]1)C(=O)N[C@H](C(=O)N[C@@H](CC(=O)O)C(=O)NCC(=O)N[C@@H](Cc1ccc(O)cc1)C(=O)N[C@@H](Cc1ccccc1)C(=O)N[C@@H](CCC(=O)O)C(=O)N[C@@H](CCCNC(=N)N)C(=O)N[C@@H](CC(C)C)C(=O)NC(C)(C)C(=O)N[C@@H](C)C(=O)N[C@@H](CCCCN)C(=O)N[C@@H](CC(C)C)C(N)=O)c1ccccc1)C(C)C,34.7,4.8,–
CC(=O)N[C@@H](Cc1cccc2ccccc12)C(=O)N[C@@H](CCC(N)=O)C(=O)N[C@@H](CO)C(=O)N[C@@H](CCCCN)C(=O)N1CCC[C@@H]1C(=O)N[C@@H](CC(N)=O)C(=O)N[C@H](C(=O)N[C@@H](Cc1cnc[nH]1)C(=O)N[C@H](C(=O)N[C@@H](CC(=O)O)C(=O)NCC(=O)N[C@@H](Cc1ccc(O)cc1)C(=O)N[C@@H](Cc1ccccc1)C(=O)N[C@@H](CCC(=O)O)C(=O)N[C@@H](CCCNC(=N)N)C(=O)N[C@@H](CC(C)C)C(=O)NC(C)(C)C(=O)N[C@@H](C)C(=O)N[C@@H](CCCCN)C(=O)N[C@@H](CC(C)C)C(N)=O)C(C)C)C(C)C,19.3,0,–
CC(=O)N[C@@H](Cc1ccccc1)C(=O)N[C@@H](CCC(N)=O)C(=O)N[C@@H](CO)C(=O)N[C@@H](CCCCN)C(=O)N1CCC[C@@H]1C(=O)N[C@@H](CC(N)=O)C(=O)N[C@H](C(=O)N[C@@H](Cc1c[nH]cn1)C(=O)N[C@H](C(=O)N[C@@H](CC(=O)O)C(=O)NCC(=O)N[C@@H](Cc1ccc(O)cc1)C(=O)N[C@@H](Cc1ccccc1)C(=O)N[C@@H](CCC(=O)O)C(=O)N[C@@H](CCCNC(=N)N)C(=O)N[C@@H](CC(C)C)C(=O)NC(C)(C)C(=O)N[C@@H](C)C(=O)N[C@@H](CCCCN)C(=O)N[C@@H](CC(C)C)C(N)=O)C1CCCCC1)C(C)C,27.6,5.4,–
CC(=O)NCSC[C@H](NC(=O)[C@H]1CCCN1C(=O)[C@H](CCCCN)NC(=O)[C@H](CO)NC(=O)[C@H](CCC(N)=O)NC(=O)[C@H](Cc1ccccc1)NC(C)=O)C(=O)N[C@H](C(=O)N[C@@H](Cc1c[nH]cn1)C(=O)N[C@H](C(=O)N[C@@H](CC(=O)O)C(=O)NCC(=O)N[C@@H](Cc1ccc(O)cc1)C(=O)N[C@@H](Cc1ccccc1)C(=O)N[C@@H](CCC(=O)O)C(=O)N[C@@H](CCCNC(=N)N)C(=O)N[C@@H](CC(C)C)C(=O)NC(C)(C)C(=O)N[C@@H](C)C(=O)N[C@@H](CCCCN)C(=O)N[C@@H](CC(C)C)C(N)=O)C(C)(C)C)C(C)C,81.2,36.1,–
CC(=O)N[C@@H](Cc1ccccc1)C(=O)N[C@@H](CCC(N)=O)C(=O)N[C@@H](CO)C(=O)N[C@@H](CCCCN)C(=O)N1CCC[C@@H]1C(=O)N[C@@H](CC(N)=O)C(=O)N[C@H](C(=O)N[C@@H](Cc1cnc[nH]1)C(=O)N[C@H](C(=O)N1CCC[C@H]1C(=O)N[C@H](CS)C(=O)N[C@@H](Cc1ccc(O)cc1)C(=O)N[C@@H](Cc1csc2ccccc12)C(=O)N[C@@H](CCS)C(=O)N[C@@H](CCCNC(=N)N)C(=O)N[C@@H](CC(C)C)C(=O)NC(C)(C)C(=O)N[C@H](C)C(=O)N[C@@H](CCCCN)C(=O)N[C@@H](CC(C)C)C(N)=O)C(C)C)C(C)C,77.7,28.3,–
CCC(CC)(NC(=O)[C@H](CC(C)C)NC(=O)[C@H](CCCNC(=N)N)NC(=O)[C@H](CCC(=O)O)NC(=O)[C@H](Cc1ccccc1)NC(=O)[C@H](Cc1ccc(O)cc1)NC(=O)[C@@H](C)NC(=O)[C@H](CC(=O)O)NC(=O)[C@@H](NC(=O)[C@H](Cc1cnc[nH]1)NC(=O)[C@@H](NC(=O)[C@H](CC(N)=O)NC(=O)[C@H]1CCCN1C(=O)[C@H](CCCCN)NC(=O)[C@H](CO)NC(=O)[C@H](CCC(N)=O)NC(=O)[C@H](Cc1ccccc1)NC(C)=O)C(C)C)C(C)(C)C)C(=O)N[C@@H](C)C(=O)N[C@@H](CCCCN)C(=O)N[C@@H](CC(C)C)C(N)=O,–,62.9,–
CC(C)C[C@@H]1NC(=O)[C@H](CCCCN)NC(=O)[C@H](C)NC(=O)C(C)(C)NC(=O)[C@H](CC(C)C)NC(=O)[C@H](CCCNC(=N)N)NC(=O)[C@H](CCC(=O)O)NC(=O)[C@H](Cc2ccccc2)NC(=O)[C@H](Cc2ccc(O)cc2)NC(=O)CNC(=O)[C@H](CC(=O)O)NC(=O)[C@H](C(C)C)NC(=O)[C@H](Cc2cnc[nH]2)NC(=O)[C@H](C(C)C)NC(=O)[C@H](CC(N)=O)NC(=O)[C@H]2CCCN2C(=O)[C@H](CCCCN)NC(=O)[C@H](CO)NC(=O)[C@H](CCC(N)=O)NC(=O)[C@H](Cc2ccccc2)NC(=O)CCOCCOCCOCCNC1=O,62.8,38.1,–
CC(=O)N[C@@H](Cc1ccccc1)C(=O)N[C@@H](CCC(N)=O)C(=O)N[C@@H](CO)C(=O)N[C@@H](CCCCN)C(=O)N1CCC[C@@H]1C(=O)N[C@@H](CC(N)=O)C(=O)N[C@H](C(=O)N[C@@H](Cc1cnc[nH]1)C(=O)N[C@H](C(=O)N1CCC[C@H]1C(=O)NCC(=O)N[C@@H](Cc1ccc(O)cc1)C(=O)N[C@@H](Cc1ccccc1)C(=O)NC(C)(C)C(=O)N[C@@H](CCCNC(=N)N)C(=O)N[C@@H](CC(C)C)C(=O)NC(C)(C)C(=O)N[C@@H](C)C(=O)N[C@@H](CCCCN)C(=O)N[C@@H](CC(C)C)C(N)=O)C(C)C)C(C)C,99.5,31.2,–
CC(=O)N[C@@H](Cc1ccccc1)C(=O)N[C@@H](CCC(N)=O)C(=O)N[C@@H](CO)C(=O)N[C@@H](CCCCN)C(=O)N1CCC[C@@H]1C(=O)N[C@@H](CC(N)=O)C(=O)N[C@H](C(=O)N[C@@H](Cc1cnc[nH]1)C(=O)N[C@H](C(=O)N[C@@H](CC(=O)O)C(=O)NCC(=O)N[C@@H](Cc1ccc(O)cc1)C(=O)N[C@@H](Cc1ccccc1)C(=O)N[C@@H](CCC(=O)O)C(=O)N[C@@H](CCCNC(=N)N)C(=O)N[C@@H](CC(C)C)C(=O)NC(C)(C)C(=O)N[C@@H](C)C(=O)N[C@@H](CCCCN)C(=O)N[C@@H](CC(C)C)C(N)=O)C(C)C)C1CCCCC1,–,4.1,–
CC(=O)N[C@@H](Cc1ccccc1)C(=O)N[C@@H](CCC(N)=O)C(=O)N[C@@H](CO)C(=O)N[C@@H](CCCCN)C(=O)N1CCC[C@@H]1C(=O)N[C@@H](CC(N)=O)C(=O)N[C@H](C(=O)N[C@@H](Cc1cnc[nH]1)C(=O)N[C@H](C(=O)N[C@@H](CC(=O)O)C(=O)N[C@H](C)C(=O)N[C@@H](Cc1ccc(O)cc1)C(=O)N[C@@H](Cc1ccccc1)C(=O)N[C@@H](CCC(=O)O)C(=O)N[C@@H](CCCNC(=N)N)C(=O)N[C@H]1CCSSCC[C@@H](C(N)=O)NC(=O)[C@H](CCCCN)NC(=O)[C@H](C)NC(=O)C(C)(C)NC1=O)C(C)(C)C)C(C)C,–,65.5,–
CC(=O)N[C@@H](Cc1ccccc1)C(=O)N[C@@H](CCC(N)=O)C(=O)N[C@@H](CO)C(=O)N[C@@H](CCCCN)C(=O)N1CCC[C@@H]1C(=O)N[C@@H](CC(N)=O)C(=O)N[C@H](C(=O)N[C@@H](Cc1cnc[nH]1)C(=O)N[C@H](C(=O)N[C@@H](CC(=O)O)C(=O)NCC(=O)N[C@@H](Cc1ccc(O)cc1)C(=O)N[C@@H](Cc1cccc2ccccc12)C(=O)N[C@@H](CCC(=O)O)C(=O)N[C@@H](CCCNC(=N)N)C(=O)N[C@@H](CC(C)C)C(=O)NC(C)(C)C(=O)N[C@@H](C)C(=O)N[C@@H](CCCCN)C(=O)N[C@@H](CC(C)C)C(N)=O)C(C)C)C(C)C,–,6.3,–
CC(=O)N[C@@H](Cc1ccccc1)C(=O)N[C@@H](CCC(N)=O)C(=O)N[C@@H](CO)C(=O)N[C@@H](CCCCN)C(=O)NCC(=O)N[C@@H](CC(N)=O)C(=O)N[C@H](C(=O)N[C@@H](Cc1ccccc1)C(=O)N[C@H](C(=O)N[C@@H](CC(=O)O)C(=O)NCC(=O)N[C@@H](Cc1ccc(O)cc1)C(=O)N[C@@H](Cc1ccccc1)C(=O)N[C@@H](CCC(=O)O)C(=O)N[C@@H](CCCNC(=N)N)C(=O)N[C@@H](CC(C)C)C(=O)NC(C)(C)C(=O)N[C@@H](C)C(=O)NC(C)(C)C(=O)N[C@@H](CC(C)C)C(N)=O)C(C)C)C(C)C (Ac-FQSKGNVFVDGYFERL[Aib]A[Aib]L-NH2),–,–,< 5.30
COc1ccc(C[C@H](NC(=O)CNC(=O)[C@H](CC(=O)O)NC(=O)[C@@H](NC(=O)[C@H](Cc2cnc[nH]2)NC(=O)[C@@H](NC(=O)[C@H](CC(N)=O)NC(=O)[C@H]2CCCN2C(=O)[C@H](CCCCN)NC(=O)[C@H](CO)NC(=O)[C@H](CCC(N)=O)NC(=O)[C@H](Cc2ccccc2)NC(C)=O)C(C)C)C(C)C)C(=O)N[C@@H](Cc2ccccc2)C(=O)N[C@@H](CCC(=O)O)C(=O)N[C@@H](CCCNC(=N)N)C(=O)N[C@@H](CC(C)C)C(=O)NC(C)(C)C(=O)N[C@@H](C)C(=O)N[C@@H](CCCCN)C(=O)N[C@@H](CC(C)C)C(N)=O)cc1,–,7.3,–
Ac-FQSKKNVFVFGLFERLRAKL-NH2,–,–,< 5.30
Ac-FQSKKNVFVFGYFEFLRAKL-NH2,–,–,< 5.30
Ac-FQSKKNVFVFGGFERLRAKL-NH2,–,–,< 5.30
Ac-FQSKKNDFVFGYFERLRAKL-NH2,–,–,< 5.30
Ac-FQSKKNVFVFGYFEGLRAKL-NH2,–,–,< 5.30
Ac-FQFKKNVFVFGYFERLRAKL-NH2,–,–,< 5.30
Ac-FDSKKNVFVFGYFERLRAKL-NH2,–,–,< 5.78
Ac-FQLKKNVFVFGYFERLRAKL-NH2,–,–,< 5.30
Ac-FQSKKNVFVFGDFERLRAKL-NH2,–,–,< 5.30
CC(=O)N[C@H](CC(C)C)C(=O)N[C@H](CCCCN)C(=O)N[C@H](C)C(=O)N[C@H](CCCNC(=N)N)C(=O)N[C@H](CC(C)C)C(=O)N[C@H](CCCNC(=N)N)C(=O)N[C@H](CCC(=O)O)C(=O)N[C@H](Cc1ccccc1)C(=O)N[C@H](Cc1ccc(O)cc1)C(=O)NCC(=O)N[C@H](Cc1ccccc1)C(=O)N[C@@H](C(=O)N[C@H](Cc1ccccc1)C(=O)N[C@@H](C(=O)N[C@H](CC(N)=O)C(=O)N[C@H](CCCCN)C(=O)N[C@H](CCCCN)C(=O)N[C@H](CO)C(=O)N[C@H](CCC(N)=O)C(=O)N[C@H](Cc1ccccc1)C(N)=O)C(C)C)C(C)C,–,–,5.78 to 6.25
Ac-FQSKKNVFGFGYFERLRAKL-NH2,–,–,< 5.30
